We go through 7 molecules from article PMC8298633, “Cannabis constituents interact at the drug efflux pump BCRP to markedly increase plasma cannabidiolic acid concentrations” (Scientific Reports, 2021).

Usually Papp B→A stands for the apparent permeability from the basolateral to the apical side of a cell layer. For orientation: efflux ratio means the permeability from basolateral to apical divided by that in the opposite direction, in the common usage. Broadly, the AUC is the area under the concentration-time curve, a measure of exposure. Low values mean low exposure, high ones high exposure. By Cmax is commonly meant the highest concentration seen after dosing. One may read the half-life as the time in which the quantity being followed falls by half. A higher half-life goes with slow loss.

The nature of data set [1]: Pharmacokinetic study: plasma cannabinoids after single oral gavage of full-spectrum cannabis extract or individual cannabinoid. To be noted: for Detection in plasma following oral administration of the full-spectrum extract / AUC / Cmax / tmax / Total plasma exposure in full-spectrum extract relative to individual compound, fold lower / t1/2: mouse plasma; for Detection in plasma following oral administration of the full-spectrum extract: single oral dose of extract; for Total plasma exposure in full-spectrum extract relative to individual compound, fold lower: equivalent doses. As to the method: Drugs were administered by oral gavage in a volume of 5 mL/kg. Wildtype male and female mice (postnatal day 21–28, P21-28) received a single oral gavage of either the full-spectrum cannabis extract or an individual cannabinoid. Cannabinoid doses within the full-spectrum extract or as an individual cannabinoid were as follows in mg/kg: CBDA and Δ^9-THCA, 50; CBD, 25; Δ^9-THC, 15; CBC, 9; CBDVA and CBGA, 7; CBN, 2.5; CBG, 1.5; CBDV and Δ^9-THCV, < 1 (Fig. 1a). At selected time points (15–240 min), mice were anesthetized with isoflurane and whole blood was collected by cardiac puncture. Plasma was isolated by centrifugation (9000 g for 10 min, 4 °C) and stored at − 80 °C until assayed.
Concentrations of cannabinoids in plasma samples were quantified as described previously, [24], [58]. […] The organic layer was isolated by centrifugation (4000 g for 10 min) and evaporated to dryness with N2. Samples were reconstituted in acetonitrile and 0.1% formic acid in water (1:3.3, v/v) for supported-liquid extraction (SLE) with methyl tert-butyl ether (MTBE) using Biotage Isolute SLE+ columns (Uppsala, SWE). […] Quantification of cannabinoids was achieved by comparing samples to standards prepared with known amounts of drug.
Plasma concentrations at each time point were averaged and pharmacokinetic parameters were calculated by noncompartmental analysis. Elimination rate constants were determined by linear regression of the terminal component of the concentration–time curve using GraphPad Prism 8.2 (La Jolla, USA). The log-linear trapezoidal method was used to calculated total drug exposure (area under concentration–time curve) using equations described previously.

Data set [2] concerns the target T1, BCRP (Homo sapiens, UniProt Q9UNQ0).
T1 sequence (Q9UNQ0 1-655): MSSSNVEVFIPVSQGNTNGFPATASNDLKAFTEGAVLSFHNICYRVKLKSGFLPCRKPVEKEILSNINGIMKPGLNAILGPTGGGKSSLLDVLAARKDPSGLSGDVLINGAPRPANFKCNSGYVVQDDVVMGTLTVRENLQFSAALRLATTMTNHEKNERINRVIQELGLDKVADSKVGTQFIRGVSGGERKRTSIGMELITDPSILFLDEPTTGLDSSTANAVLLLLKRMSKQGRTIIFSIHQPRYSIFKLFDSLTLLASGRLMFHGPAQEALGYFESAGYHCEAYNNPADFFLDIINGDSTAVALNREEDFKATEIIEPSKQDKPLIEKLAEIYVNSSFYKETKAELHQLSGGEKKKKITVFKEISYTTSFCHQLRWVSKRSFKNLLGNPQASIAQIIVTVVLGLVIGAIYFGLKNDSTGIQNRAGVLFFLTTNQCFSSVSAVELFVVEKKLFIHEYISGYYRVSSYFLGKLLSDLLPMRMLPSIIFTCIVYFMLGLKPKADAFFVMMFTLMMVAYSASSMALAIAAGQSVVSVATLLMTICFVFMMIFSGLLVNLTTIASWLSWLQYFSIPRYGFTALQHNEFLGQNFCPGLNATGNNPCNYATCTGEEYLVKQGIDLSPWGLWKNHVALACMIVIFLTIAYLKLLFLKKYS
As to the kind of experiment: Bidirectional transwell substrate assay, MDCK cells expressing BCRP (with or without elacridar). To be noted: for P (B > A) / P (A > B) / efflux ratio at 240 min, 10 µM: BCRP MDCK cells, 10 µM cannabinoid; for P (B > A): basolateral to apical; for BCRP substrate status: human BCRP MDCK cells vs wildtype, with elacridar control; for P (A > B): apical to basolateral; for efflux ratio at 240 min, 10 µM: human, r (transport efflux ratio), substrate threshold 1.5. The method, then:
(§1) We first aimed to determine whether the cannabinoids found in the full-spectrum cannabis extract were substrates of P-glycoprotein and BCRP by using MDCK cells expressing human P-glycoprotein or BCRP in vitro. Transwell assays were conducted to assess bidirectional transport of the cannabinoids detected in plasma following administration of the full-spectrum cannabis extract (CBD, CBDA, CBDVA, CBGA, Δ^9-THC and Δ^9-THCA), including the respective neutral compounds (CBDV and CBG) across wildtype, BCRP and P-glycoprotein MDCK cell monolayers. […] BCRP and P-glycoprotein preferentially transport substrates in the B > A direction.
(§2) Media in the donor chamber was then replaced with that containing 10 µM of an individual cannabinoid in the presence of either vehicle or inhibitor and returned to 37 °C. Aliquots (25 or 50 µL) were removed from the accepter chamber at 60, 120, 180 and 240 min.
(§3) Cannabinoids were analyzed as described above.

A short description of data set [3]: Bidirectional transwell transport assay, wildtype MDCK cell monolayers. To be noted: dog, MDCK. As to the method: as §1, §2, §3
The target of the next data set is P-glycoprotein (Homo sapiens, UniProt P08183). As to the kind of experiment: Bidirectional transwell substrate assay, MDCK cells expressing P-glycoprotein. To be noted: for P (A > B): apical to basolateral; for P (B > A): basolateral to apical; for P-glycoprotein substrate status: human P-glycoprotein MDCK cells vs wildtype; for efflux ratio at 240 min, 10 µM: human, MDCK-MDR1, r (transport efflux ratio). The method, then: as §1, §2, §3

Data set [4] addresses T1, BCRP. As to the kind of experiment: Inhibition of BCRP-mediated transport of prazosin (transwell, BCRP MDCK cells). To be noted: 10 µM, compared to vehicle.
Another data set relates to wildtype MDCK cells. The data set is described as follows: Bidirectional transwell transport assay, wildtype MDCK cell monolayers. To be noted: wildtype MDCK cells, 10 µM cannabinoid, apical to basolateral. As to the method:
as §1, §2, §3

[5] abbreviates: P-glycoprotein MDCK cells, 10 µM cannabinoid.
Where [6] appears, read: P-glycoprotein MDCK cells, 10 µM cannabinoid, substrate threshold 2.5.
Setting [7] is: oral, administered as individual cannabinoid, doses mg/kg: CBD 25, CBDA 50, CBDVA 7, THC 15, THCA 50.
Where [8] appears, read: oral, administered in full-spectrum extract, doses mg/kg: CBD 25, CBDA 50, CBDVA 7, CBGA 7, THC 15, THCA 50.

Structures are written as SMILES. “Also recorded” adds a separate entry of the source. Bounds are passed on as bounds.

Sequence of P-glycoprotein (P08183 whole entry): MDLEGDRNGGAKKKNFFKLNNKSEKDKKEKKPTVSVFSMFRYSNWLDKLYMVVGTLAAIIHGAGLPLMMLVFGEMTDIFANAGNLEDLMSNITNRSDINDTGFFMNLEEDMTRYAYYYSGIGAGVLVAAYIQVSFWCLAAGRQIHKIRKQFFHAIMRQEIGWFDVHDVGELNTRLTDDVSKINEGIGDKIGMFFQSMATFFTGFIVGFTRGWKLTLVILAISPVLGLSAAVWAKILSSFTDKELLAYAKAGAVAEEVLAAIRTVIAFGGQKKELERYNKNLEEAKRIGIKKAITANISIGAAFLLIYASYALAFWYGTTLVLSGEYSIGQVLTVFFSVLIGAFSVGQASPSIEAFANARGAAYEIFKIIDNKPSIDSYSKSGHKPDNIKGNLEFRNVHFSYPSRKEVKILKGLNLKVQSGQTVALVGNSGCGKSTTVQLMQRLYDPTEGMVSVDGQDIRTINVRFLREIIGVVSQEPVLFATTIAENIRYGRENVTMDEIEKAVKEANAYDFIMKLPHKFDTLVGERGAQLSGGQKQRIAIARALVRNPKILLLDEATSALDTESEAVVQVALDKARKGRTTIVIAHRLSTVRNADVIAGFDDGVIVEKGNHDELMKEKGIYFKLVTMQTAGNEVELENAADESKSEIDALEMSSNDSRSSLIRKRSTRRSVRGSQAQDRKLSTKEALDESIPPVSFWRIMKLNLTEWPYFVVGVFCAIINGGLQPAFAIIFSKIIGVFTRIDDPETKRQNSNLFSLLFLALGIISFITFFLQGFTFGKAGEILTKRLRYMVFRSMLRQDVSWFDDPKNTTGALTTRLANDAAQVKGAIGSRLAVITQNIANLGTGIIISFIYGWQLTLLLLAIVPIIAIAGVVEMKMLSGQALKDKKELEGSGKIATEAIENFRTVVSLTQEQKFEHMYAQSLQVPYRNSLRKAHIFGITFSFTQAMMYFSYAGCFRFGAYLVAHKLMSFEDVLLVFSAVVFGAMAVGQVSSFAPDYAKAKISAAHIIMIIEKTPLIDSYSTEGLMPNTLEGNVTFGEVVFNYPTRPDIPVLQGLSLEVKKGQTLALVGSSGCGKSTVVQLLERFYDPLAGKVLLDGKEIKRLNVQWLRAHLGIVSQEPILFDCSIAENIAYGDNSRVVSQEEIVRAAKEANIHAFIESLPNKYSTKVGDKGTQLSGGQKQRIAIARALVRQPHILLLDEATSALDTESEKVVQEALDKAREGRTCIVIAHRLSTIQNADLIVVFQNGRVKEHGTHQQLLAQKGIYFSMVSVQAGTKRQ

As to `CCCCCc1cc(O)c2c(c1)OC(C)(C)c1ccc(C)cc1-2` [CBN, cannabinol], the “Detection in plasma following oral administration of the full-spectrum extract” value (“Detection” for short) in data set [1] is on record as “not detected”.

As to `CCCCCc1cc(O)c(C/C=C(\C)CCC=C(C)C)c(O)c1C(=O)O` [CBGA, cannabigerolic acid], the “P (B > A)” value at BCRP [2] is 5 ± 1 × 10^−5 cm/s; at P-glycoprotein (setting [5]) it was 3 ± 1 × 10^−5 cm/s. Moreover, the BCRP substrate status entry on BCRP [2] was “not substrates of either BCRP or P-glycoprotein”. Further, in data set [3], the Papp B→A at 240 min, 10 µM turned out to be 10 ± 10 ×10⁻⁶ cm/s. Also, on P-glycoprotein (setting [5]), the “P (A > B)” value is recorded as 5 ± 2 × 10^−5 cm/s. Also, the P-glycoprotein substrate status result at P-glycoprotein was “not substrates of either BCRP or P-glycoprotein”. For the same molecule, on P-glycoprotein (setting [6]), the efflux ratio at 240 min, 10 µM turned out to be 0.7 ± 0.5. For the same molecule, the AUC in data set [1] (both, mouse, plasma, po, 7 mg/kg, AUC (does not include terminal phase), administered as individual cannabinoid, CBGA 7 mg/kg) was 144000 ng·h/mL; in data set [1] (both, mouse, plasma, po, AUC, oral, administered in full-spectrum extract, doses mg/kg: CBD 25, CBDA 50, CBDVA 7, CBGA 7, THC 15, THCA 50), 86200 ng·h/mL. Besides, the highest concentration (Cmax) worked out at 48000 ± 2000 ng/mL in data set [1] (both, mouse, plasma, po, Cmax, oral, administered as individual cannabinoid, doses mg/kg: CBDA 50, CBDVA 7, CBGA 7) and 12000 ± 1000 ng/mL in data set [1] (both, mouse, plasma, po, Cmax, oral, administered in full-spectrum extract, doses mg/kg: CBDA 50, CBDVA 7, CBGA 7). The molecule further displayed a half-life in data set [1] (both, mouse, plasma, po, t1/2, mouse plasma, oral, administered in full-spectrum extract, doses mg/kg: CBD 25, CBDA 50, CBDVA 7, CBGA 7, THC 15, THCA 50) of 4.97 h. The tmax was 2 h in data set [1] (both, mouse, plasma, po, tmax, oral, administered as individual cannabinoid, doses mg/kg: CBD 25, CBDA 50, CBDVA 7, CBGA 7, THC 15, THCA 50) and no more than 1 h in data set [1] (both, mouse, plasma, po, tmax, oral, administered in full-spectrum extract, doses mg/kg: CBD 25, CBDA 50, CBDVA 7, CBGA 7, THC 15, THCA 50). In addition, the “Total plasma exposure in full-spectrum extract relative to individual compound, fold lower” value in data set [1] (oral) was 2–4 ×. Also, the “Detection” value in data set [1] was “detected”.

As for `CCCCCc1cc(O)c2c(c1)OC(C)(CCC=C(C)C)C=C2` (centres unmarked) [CBC], the “Detection” value in data set [1] is given as “not detected”.

Regarding `CCCc1cc(O)c2c(c1)OC(C)(C)[C@@H]1CCC(C)=C[C@@H]21` [Δ^9-THCV, Δ^9-tetrahydrocannabivarin], the “Detection” value in data set [1] is “not detected”.

In the case of `CCCCCc1cc(O)c(C/C=C(\C)CCC=C(C)C)c(O)c1` [CBG, cannabigerol], the “Effect on BCRP-mediated transport of prazosin” value at BCRP [4] was “not prazosin transport”. In addition, on BCRP [2], the “P (A > B)” value was 47 ± 9 × 10^−5 cm/s; the “P (B > A)” value is 53 ± 10 × 10^−5 cm/s; the BCRP substrate status result is “weak substrates of BCRP”; the efflux ratio at 240 min, 10 µM came to 1.1 ± 0.3. For the same molecule, the “P (A > B)” value in the data set with wildtype MDCK cells is 12 ± 5 × 10^−5 cm/s. Also, in data set [3], the Papp B→A at 240 min, 10 µM is 100 ± 30 ×10⁻⁶ cm/s and the efflux ratio at 240 min, 10 µM was determined as 0.8 ± 0.5. Moreover, on P-glycoprotein (setting [5]), the “P (A > B)” value is on record as 19 ± 5 × 10^−5 cm/s and the “P (B > A)” value is recorded as 14 ± 2 × 10^−5 cm/s. In addition, the P-glycoprotein substrate status entry at P-glycoprotein was “not P-glycoprotein substrates”. Also, the “Detection” value in data set [1] is listed as “not detected”.

As to `C=C(C)[C@@H]1CCC(C)=C[C@H]1c1c(O)cc(CCC)cc1O` [CBDV, cannabidivarin], at BCRP [2], the “P (A > B)” value is recorded as 63 ± 14 × 10^−5 cm/s; the “P (B > A)” value is recorded as 90 ± 9 × 10^−5 cm/s; the BCRP substrate status result is reported as “not considered a substrate of BCRP; also recorded: not substrates of either BCRP or P-glycoprotein”; the efflux ratio at 240 min, 10 µM is 1.4 ± 0.2. Besides, the “P (A > B)” value in the data set on wildtype MDCK cells is recorded as 43 ± 5 × 10^−5 cm/s. For the same molecule, in data set [3], the apparent permeability from basolateral to apical (Papp B→A) at 240 min, 10 µM came out at 440 ± 50 ×10⁻⁶ cm/s and the efflux ratio at 240 min, 10 µM turned out to be 1 ± 0.2. On P-glycoprotein (setting [5]), the “P (A > B)” value is reported as 30 ± 8 × 10^−5 cm/s and the “P (B > A)” value is recorded as 34 ± 3 × 10^−5 cm/s. At P-glycoprotein, the P-glycoprotein substrate status result is “not substrates of either BCRP or P-glycoprotein”. For the same molecule, the efflux ratio at 240 min, 10 µM at P-glycoprotein (setting [6]) turned out to be 1.1 ± 0.3. For the same molecule, the “Detection” value in data set [1] is recorded as “not detected”.

For the molecule `CCCCCc1cc2c(c(O)c1C(=O)O)C1C=C(C)CCC1C(C)(C)O2` (centres unmarked) [Δ^9-THCA, Δ^9-tetrahydrocannabinolic acid], at BCRP [2], the “P (B > A)” value is given as 6 ± 2 × 10^−5 cm/s and the BCRP substrate status result is “not substrates of either BCRP or P-glycoprotein”. On P-glycoprotein (setting [5]), the “P (A > B)” value was 17 ± 5 × 10^−5 cm/s and the “P (B > A)” value is recorded as 8 ± 3 × 10^−5 cm/s. Moreover, the “r (transport efflux ratio)” value at P-glycoprotein (setting [6]) is given as 0.5 ± 0.4. Moreover, on P-glycoprotein, the P-glycoprotein substrate status entry is “not substrates of either BCRP or P-glycoprotein”. For the same molecule, the tmax in data set [1] (oral, administered as individual cannabinoid, doses mg/kg: CBD 25, CBDA 50, CBDVA 7, CBGA 7, THC 15, THCA 50) was determined as 0.5 h. In addition, in data set [1] (setting [7]), the area under the curve (AUC) was determined as 2880 ng·h/mL and the t1/2 is 0.617 h. In addition, the Cmax in data set [1] (oral, administered as individual cannabinoid, doses mg/kg: CBD 25, THC 15, THCA 50) is listed as 2094 ± 74 ng/mL. Also, in data set [1] (setting [8]), the AUC was 733 ng·h/mL, the t1/2 worked out at 0.767 h and the tmax turned out to be 0.75 h. The maximum concentration (Cmax) in data set [1] (oral, administered in full-spectrum extract, doses mg/kg: CBD 25, THC 15, THCA 50) was 465 ± 64 ng/mL. The “Total plasma exposure in full-spectrum extract relative to individual compound, fold lower” value in data set [1] (oral) is 2–4 ×. Also, in data set [1], the “Detection” value was “detected”.
